Assay results published in article PMC5681660, “Reduced hepatitis B and D viral entry using clinically applied drugs as novel inhibitors of the bile acid transporter NTCP” (Scientific Reports, 2017).
Counter-ions that a name gives are not always drawn. Like-named read-outs stand apart in the source and are kept apart here.

Experiments:
human NTCP [1] = biological target: T1, human NTCP (Homo sapiens, UniProt Q14973); test: Screening fluorescent competitive Myrcludex B-FITC binding assay (96-well, 10 µM drug); conditions: 10 µM drug
T1 sequence (Q14973 1-349): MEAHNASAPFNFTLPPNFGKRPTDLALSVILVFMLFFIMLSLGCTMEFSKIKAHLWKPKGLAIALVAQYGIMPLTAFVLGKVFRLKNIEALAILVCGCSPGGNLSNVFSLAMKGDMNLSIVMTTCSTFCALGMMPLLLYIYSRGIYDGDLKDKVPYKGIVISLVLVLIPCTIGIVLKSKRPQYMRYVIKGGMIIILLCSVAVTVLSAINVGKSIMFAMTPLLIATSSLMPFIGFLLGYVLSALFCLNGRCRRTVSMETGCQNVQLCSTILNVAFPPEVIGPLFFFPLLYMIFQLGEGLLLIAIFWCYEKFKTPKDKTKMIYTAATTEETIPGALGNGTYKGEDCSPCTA

human NTCP [2] = biological target: T1, human NTCP; test: Screening taurocholate uptake assay (96-well, [14C]taurocholate, 10 µM drug)
[3] = Prestwick library screen, B-score of Myrcludex B-FITC binding
[4] = Prestwick library screen, 10 µM drug, B-score of taurocholate uptake
[5] = combined ranking from functional and binding assay B-scores
[6] = screen, Myrcludex B-FITC binding
[7] = combined ranking from functional and binding screening assays
[8] = screen, 10 µM drug, taurocholate uptake
[9] = Prestwick library screen, Myrcludex B-FITC binding
[10] = Prestwick library screen, taurocholate uptake, 10 µM drug
[11] = ranking score beside the functional and binding assay B-scores of the screen
[12] = ranking over the functional and the binding screening assay
[13] = screening taurocholate uptake, 10 µM drug
[14] = combined ranking of functional and binding screening assays
[15] = screening taurocholate uptake, 10 µM drug, B-score

CC[N+]1(C)CCCC(OC(=O)C(O)(c2ccccc2)c2ccccc2)C1 (stereo not shown) [Pipenzolate bromide]
B-score binding assay (human NTCP [1]; [3]): 0.291 | B-score functional assay (human NTCP [2]; [4]): 2.623 | Ranking score (human NTCP [2]; [5]): 1014.24

CCN(CC)CCNC(=O)c1cc(Br)c(N)cc1OC [Bromopride]
B-score binding assay (human NTCP [1]; [3]): 1.459 | B-score functional assay (human NTCP [2]; [4]): 0.033 | Ranking score (human NTCP [2]; [5]): 880.053

NNCCc1ccccc1 [Phenelzine sulfate]
B-score binding assay (human NTCP [1]; [6]): -0.533 | Ranking score (human NTCP [2]; [7]): 418.784 | B-score functional assay (human NTCP [2]; [8]): -0.221

CN(C/C=C/C#CC(C)(C)C)Cc1cccc2ccccc12 [Terbinafine]
B-score binding assay (human NTCP [1]; [9]): -0.07 | B-score functional assay (human NTCP [2]; [10]): 3.878 | Ranking score (human NTCP [2]; [11]): 842.5

CC1(C)NC(=O)N(c2ccc([N+](=O)[O-])c(C(F)(F)F)c2)C1=O [Nilutamide]
B-score binding assay (human NTCP [1]; [3]): 0.756 | B-score functional assay (human NTCP [2]; [4]): 5.352 | Ranking score (human NTCP [2]; [5]): 1119.7

Cc1cnc(C(=O)O)c[n+]1[O-] [Acipimox]
B-score binding assay (human NTCP [1]; [3]): 0.142 | B-score functional assay (human NTCP [2]; [4]): 0.91 | Ranking score (human NTCP [2]; [5]): 894.262

CNC(C)CCC=C(C)C.CNC(C)CCC=C(C)C.O=C(O)[C@@H](O)[C@H](O)[C@H](O)[C@@H](O)C(=O)O [Isometheptene mucate]
B-score binding assay (human NTCP [1]; [6]): -0.672 | Ranking score (human NTCP [2]; [7]): 319.923 | B-score functional assay (human NTCP [2]; [8]): -0.726

COc1ccc(C(Cl)=C(c2ccc(OC)cc2)c2ccc(OC)cc2)cc1 [Chlorotrianisene]
B-score binding assay (human NTCP [1]; [3]): 1.19 | B-score functional assay (human NTCP [2]; [4]): 0.481 | Ranking score (human NTCP [2]; [5]): 983.616

COCCCOc1ccnc(C[S+]([O-])c2nc3ccccc3[nH]2)c1C (stereo not shown) [Rabeprazole Sodium salt]
B-score binding assay (human NTCP [1]; [9]): -0.144 | B-score functional assay (human NTCP [2]; [10]): 1.371 | Ranking score (human NTCP [2]; [11]): 764.457

CC(C)(O)c1ccccc1CC[C@@H](SCC1(CC(=O)O)CC1)c1cccc(/C=C/c2ccc3ccc(Cl)cc3n2)c1 [Montelukast]
Ranking score (human NTCP [2]; [12]): 55.3173 | B-score functional assay (human NTCP [2]; [13]): -3.762

O=C(O)c1cc(-c2ccc(F)cc2F)ccc1O [Diflunisal]
Ranking score (human NTCP [2]; [12]): 134.198 | B-score functional assay (human NTCP [2]; [13]): -4.496

CCC(=O)O[C@]1(C(=O)CCl)[C@@H](C)C[C@H]2[C@@H]3CCC4=CC(=O)C=C[C@]4(C)[C@@]3(F)[C@@H](O)C[C@@]21C [Clobetasol propionate]
Ranking score (human NTCP [2]; [12]): 265.371 | B-score functional assay (human NTCP [2]; [13]): -0.819

CCc1nn(CCCN2CCN(c3cccc(Cl)c3)CC2)c(=O)n1CCOc1ccccc1 [Nefazodone HCl]
Ranking score (human NTCP [2]; [12]): 227.321 | B-score functional assay (human NTCP [2]; [13]): -1.389

Cc1ccnc2c1NC(=O)c1cccnc1N2C1CC1 [Nevirapine]
Ranking score (human NTCP [2]; [14]): 548.284 | B-score functional assay (human NTCP [2]; [13]): -1.052

CC[C@H](C)[C@H]1O[C@]2(CC[C@@H]1C)C[C@@H]1C[C@@H](C/C=C(\C)[C@@H](O[C@H]3C[C@H](OC)[C@@H](O[C@H]4C[C@H](OC)[C@@H](O)[C@H](C)O4)[C@H](C)O3)[C@@H](C)/C=C/C=C3\CO[C@@H]4[C@H](O)C(C)=C[C@@H](C(=O)O1)[C@]34O)O2 [Ivermectin]
Ranking score (human NTCP [2]; [12]): 56.4978 | B-score functional assay (human NTCP [2]; [13]): -2.693

COc1ccc2c(c1)c(CC(=O)O)c(C)n2C(=O)c1ccc(Cl)cc1 [Indomethacin]
Ranking score (human NTCP [2]; [12]): 264.174 | B-score functional assay (human NTCP [2]; [13]): -1.11

CCN(CC)CCc1nc(-c2ccccc2)no1.O=C(O)CC(O)(CC(=O)O)C(=O)O [Oxalamine citrate salt]
Ranking score (human NTCP [2]; [14]): 587.786 | B-score functional assay (human NTCP [2]; [13]): 0.505

C[C@H](N)[C@H](O)c1cccc(O)c1 [Metaraminol bitartrate]
Ranking score (human NTCP [2]; [12]): 141.58 | B-score functional assay (human NTCP [2]; [13]): 0.952

Clc1ccc(COC(Cn2ccnc2)c2ccc(Cl)cc2Cl)c(Cl)c1 (stereo not shown) [Miconazole]
Ranking score (human NTCP [2]; [12]): 240.998 | B-score functional assay (human NTCP [2]; [13]): -2.763

CC(C)c1c(C(=O)Nc2ccccc2)c(-c2ccccc2)c(-c2ccc(F)cc2)n1CC[C@@H](O)C[C@@H](O)CC(=O)O [Atorvastatin]
Ranking score (human NTCP [2]; [12]): 231.469 | B-score functional assay (human NTCP [2]; [13]): -2.669

CCC1(CC)C(=O)C=CNC1=O [Pyrithyldione]
Ranking score (human NTCP [2]; [14]): 558.14 | B-score functional assay (human NTCP [2]; [13]): 0.404

NC[C@H]1O[C@H](O[C@H]2[C@H](O)[C@@H](O[C@H]3O[C@H](CO)[C@@H](O)[C@H](N)[C@H]3O)[C@H](N)C[C@@H]2N)[C@H](N)C[C@@H]1O [Tobramycin]
Ranking score (human NTCP [2]; [14]): 498.515 | B-score functional assay (human NTCP [2]; [13]): -0.213

CN(C)CCC(c1ccc(Br)cc1)c1ccccn1 (stereo not shown) [Brompheniramine maleate]
Ranking score (human NTCP [2]; [14]): 520.776 | B-score functional assay (human NTCP [2]; [13]): -0.661

OC(Cn1cncn1)(Cn1cncn1)c1ccc(F)cc1F [Fluconazole]
Ranking score (human NTCP [2]; [14]): 553.146 | B-score functional assay (human NTCP [2]; [13]): 1.083

N=C(N)c1ccc(OCCCCCOc2ccc(C(=N)N)cc2)cc1 [Pentamidine isethionate]
Ranking score (human NTCP [2]; [14]): 489.028 | B-score functional assay (human NTCP [2]; [13]): -0.233

CC(=O)NC[C@H]1CN(c2ccc(N3CCOCC3)c(F)c2)C(=O)O1 [Linezolid]
Ranking score (human NTCP [2]; [12]): 172.974 | B-score functional assay (human NTCP [2]; [13]): -1.549

O=C(Nc1cccc2c(=O)cc(-c3nnn[nH]3)oc12)c1ccc(OCCCCc2ccccc2)cc1 [Pranlukast]
Ranking score (human NTCP [2]; [12]): 43.359 | B-score functional assay (human NTCP [2]; [13]): -8.959

CC(=O)Oc1cccc2c1C(=O)c1c(OC(C)=O)cc(C(=O)O)cc1C2=O [Diacerein]
Ranking score (human NTCP [2]; [12]): 199.08 | B-score functional assay (human NTCP [2]; [13]): -4.175

C#CCN(C)[C@H](C)Cc1ccccc1 [Selegiline hydrochloride]
Ranking score (human NTCP [2]; [14]): 462.99 | B-score functional assay (human NTCP [2]; [13]): -1.141

CC(COc1ccccc1)N(CCCl)Cc1ccccc1 (stereo not shown) [Phenoxybenzamine hydrochloride]
Ranking score (human NTCP [2]; [12]): 229.8 | B-score functional assay (human NTCP [2]; [13]): -0.06

COc1cc2ncnc(Nc3ccc(F)c(Cl)c3)c2cc1OCCCN1CCOCC1 [Gefitinib]
Ranking score (human NTCP [2]; [14]): 629.087 | B-score functional assay (human NTCP [2]; [13]): 0.784

O=C1c2c(O)cccc2Cc2cccc(O)c21 [Anthralin]
Ranking score (human NTCP [2]; [12]): 68.2788 | B-score functional assay (human NTCP [2]; [13]): 0.019

CC(=O)OC(C)C[N+](C)(C)C (stereo not shown) [Methacholine chloride]
Ranking score (human NTCP [2]; [14]): 628.097 | B-score functional assay (human NTCP [2]; [13]): 0.496

C[C@@H]1C[C@H]2[C@@H]3CCC4=CC(=O)C=C[C@]4(C)[C@@]3(Cl)[C@@H](O)C[C@]2(C)[C@@]1(OC(=O)c1ccco1)C(=O)CCl [Mometasone furoate]
Ranking score (human NTCP [2]; [12]): 101.489 | B-score functional assay (human NTCP [2]; [13]): -0.4

R(-) Apomorphine hydrochloride hemihydrate
Ranking score (human NTCP [2]; [14]): 1173.62 | B-score functional assay (human NTCP [2]; [15]): 2.876

CC(Oc1c(Cl)cccc1Cl)C1=NCCN1 (stereo not shown) [Lofexidine]
Ranking score (human NTCP [2]; [14]): 633.467 | B-score functional assay (human NTCP [2]; [13]): -0.33

COc1ccccc1OCC(O)COC(N)=O (stereo not shown) [Methocarbamol]
Ranking score (human NTCP [2]; [14]): 504.159 | B-score functional assay (human NTCP [2]; [13]): -0.493

CN(C)CCn1nnnc1SCC1=C(C(=O)O)N2C(=O)[C@@H](NC(=O)Cc3csc(N)n3)[C@H]2SC1 [Cefotiam hydrochloride]
Ranking score (human NTCP [2]; [12]): 197.995 | B-score functional assay (human NTCP [2]; [13]): 1.511

CN(C(=O)CN(CCO)CC(=O)N(C)C(C)(C)Cc1ccccc1)C(C)(C)Cc1ccccc1 [Oxethazaine]
Ranking score (human NTCP [2]; [14]): 642.638 | B-score functional assay (human NTCP [2]; [13]): 0.282

CCCCc1cc2ccccc2c(OCCN(C)C)n1 [Dimethisoquin hydrochloride]
Ranking score (human NTCP [2]; [12]): 238.967 | B-score functional assay (human NTCP [2]; [13]): -0.419

COc1cc2c(c(OC)c1OC)-c1ccc(OC)c(=O)cc1[C@@H](NC(C)=O)CC2 [Colchicine]
B-score functional assay (human NTCP [2]): -0.631

CC(C(=O)O)c1ccc(-c2ccccc2)c(F)c1 (stereo not shown) [Flurbiprofen]
Ranking score (human NTCP [2]; [14]): 612.059 | B-score functional assay (human NTCP [2]; [13]): -0.613

CO/N=C(\C(=O)N[C@@H]1C(=O)N2C(C(=O)O)=C(C[N+]3(C)CCCC3)CS[C@H]12)c1csc(N)n1 [Cefepime hydrochloride]
Ranking score (human NTCP [2]; [14]): 1157.98 | B-score functional assay (human NTCP [2]; [15]): 1.484
